Data reported in patent US12479847B2 (DANA-FARBER CANCER INSTITUTE, INC., priority 2019, dated 2025).
Where two headings read alike, the source gives them in different places.

Legend:
Assay in all cases: KINOMEscan (ScanMAX) kinase profiling
Type in all cases: binding
panel of 468 kinases [1] = molecular target: T1, panel of 468 kinases (Homo sapiens, UniProt Q8IWQ3); conditions: BRSK2; 1 μM; read-out: % control
T1 construct: purchased KINOMEscan (ScanMAX) service
T1 sequence (Q8IWQ3 1-736): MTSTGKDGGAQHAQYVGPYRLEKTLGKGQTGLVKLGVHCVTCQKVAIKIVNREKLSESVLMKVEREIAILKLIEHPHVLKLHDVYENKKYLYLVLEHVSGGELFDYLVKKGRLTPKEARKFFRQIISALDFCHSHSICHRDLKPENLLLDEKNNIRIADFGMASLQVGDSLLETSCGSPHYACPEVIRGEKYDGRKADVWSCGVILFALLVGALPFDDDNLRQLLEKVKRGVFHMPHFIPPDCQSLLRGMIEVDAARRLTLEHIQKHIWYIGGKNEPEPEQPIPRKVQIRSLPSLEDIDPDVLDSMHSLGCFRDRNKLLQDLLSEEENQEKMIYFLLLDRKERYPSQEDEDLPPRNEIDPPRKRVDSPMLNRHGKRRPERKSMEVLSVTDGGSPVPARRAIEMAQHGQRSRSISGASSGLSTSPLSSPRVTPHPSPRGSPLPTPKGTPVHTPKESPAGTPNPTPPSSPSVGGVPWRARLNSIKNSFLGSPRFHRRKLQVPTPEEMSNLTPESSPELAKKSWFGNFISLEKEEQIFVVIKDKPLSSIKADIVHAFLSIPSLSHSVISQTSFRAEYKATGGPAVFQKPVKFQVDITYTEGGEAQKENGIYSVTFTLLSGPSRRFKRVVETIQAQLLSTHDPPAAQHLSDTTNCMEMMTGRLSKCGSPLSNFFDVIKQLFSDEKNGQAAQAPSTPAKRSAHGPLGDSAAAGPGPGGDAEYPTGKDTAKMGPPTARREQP

panel of 468 kinases [2] = molecular target: T2, panel of 468 kinases (Homo sapiens, UniProt P57078); conditions: RIPK4; 1 μM; read-out: % control
T2 construct: purchased KINOMEscan (ScanMAX) service
T2 sequence (P57078 1-832): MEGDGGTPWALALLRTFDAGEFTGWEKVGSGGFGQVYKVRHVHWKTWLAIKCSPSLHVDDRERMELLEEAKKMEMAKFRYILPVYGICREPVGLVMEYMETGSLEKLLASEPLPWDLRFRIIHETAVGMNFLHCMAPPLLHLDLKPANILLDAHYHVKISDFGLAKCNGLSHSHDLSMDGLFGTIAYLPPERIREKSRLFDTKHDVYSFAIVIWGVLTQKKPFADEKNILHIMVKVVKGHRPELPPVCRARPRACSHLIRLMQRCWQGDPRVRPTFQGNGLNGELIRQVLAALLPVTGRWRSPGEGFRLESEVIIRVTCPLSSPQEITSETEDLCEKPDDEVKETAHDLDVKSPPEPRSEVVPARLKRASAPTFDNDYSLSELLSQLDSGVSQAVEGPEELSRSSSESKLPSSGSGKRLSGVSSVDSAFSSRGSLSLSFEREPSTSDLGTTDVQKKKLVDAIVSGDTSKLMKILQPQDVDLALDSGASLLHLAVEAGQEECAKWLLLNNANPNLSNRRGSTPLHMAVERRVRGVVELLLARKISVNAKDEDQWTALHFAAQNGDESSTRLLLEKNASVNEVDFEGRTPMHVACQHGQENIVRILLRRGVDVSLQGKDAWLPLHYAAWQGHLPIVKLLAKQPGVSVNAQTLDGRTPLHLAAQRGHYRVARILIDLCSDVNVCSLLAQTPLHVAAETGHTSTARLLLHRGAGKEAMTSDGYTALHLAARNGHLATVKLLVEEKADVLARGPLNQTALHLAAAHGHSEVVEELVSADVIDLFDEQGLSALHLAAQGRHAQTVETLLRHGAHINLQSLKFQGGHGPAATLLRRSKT

panel of 468 kinases [3] = molecular target: T3, panel of 468 kinases (Homo sapiens, UniProt P42338); conditions: PIK3CB; 1 μM; read-out: % control
T3 construct: purchased KINOMEscan (ScanMAX) service
T3 sequence (P42338 whole entry): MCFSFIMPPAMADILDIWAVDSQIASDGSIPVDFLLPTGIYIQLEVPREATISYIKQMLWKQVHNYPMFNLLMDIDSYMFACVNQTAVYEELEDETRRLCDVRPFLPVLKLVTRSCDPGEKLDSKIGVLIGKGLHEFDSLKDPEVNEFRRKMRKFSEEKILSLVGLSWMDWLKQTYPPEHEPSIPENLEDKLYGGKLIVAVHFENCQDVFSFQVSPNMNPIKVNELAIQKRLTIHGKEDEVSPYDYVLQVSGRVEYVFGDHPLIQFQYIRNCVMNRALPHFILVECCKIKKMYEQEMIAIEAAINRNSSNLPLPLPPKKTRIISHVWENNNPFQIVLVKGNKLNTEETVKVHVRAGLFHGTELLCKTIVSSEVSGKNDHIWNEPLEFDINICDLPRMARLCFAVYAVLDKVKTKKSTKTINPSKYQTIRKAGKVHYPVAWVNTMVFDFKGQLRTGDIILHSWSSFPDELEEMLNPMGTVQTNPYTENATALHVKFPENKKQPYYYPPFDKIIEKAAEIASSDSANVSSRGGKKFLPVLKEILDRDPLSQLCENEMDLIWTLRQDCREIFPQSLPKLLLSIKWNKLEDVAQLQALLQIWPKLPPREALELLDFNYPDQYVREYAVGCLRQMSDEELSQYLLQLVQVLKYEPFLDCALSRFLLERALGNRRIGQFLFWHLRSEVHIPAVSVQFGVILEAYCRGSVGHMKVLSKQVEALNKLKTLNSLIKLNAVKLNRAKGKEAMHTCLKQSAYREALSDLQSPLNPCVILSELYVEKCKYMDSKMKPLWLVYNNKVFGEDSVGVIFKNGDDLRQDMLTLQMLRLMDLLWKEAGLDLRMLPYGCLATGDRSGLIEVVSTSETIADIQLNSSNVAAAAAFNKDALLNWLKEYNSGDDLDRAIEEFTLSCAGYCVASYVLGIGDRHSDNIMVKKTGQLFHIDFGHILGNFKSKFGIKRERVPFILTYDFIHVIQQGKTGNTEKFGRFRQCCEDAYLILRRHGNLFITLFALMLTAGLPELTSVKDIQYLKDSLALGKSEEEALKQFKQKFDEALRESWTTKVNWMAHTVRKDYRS

panel of 468 kinases [4] = molecular target: T4, panel of 468 kinases (Homo sapiens, UniProt P00519, E255K); conditions: ABL1(E255K)-phosphorylated; 1 μM; read-out: % control
T4 construct: purchased KINOMEscan (ScanMAX) service

panel of 468 kinases [5] = molecular target: T5, panel of 468 kinases (Homo sapiens, UniProt O15530); conditions: PDPK1; 1 μM; read-out: % control
T5 construct: purchased KINOMEscan (ScanMAX) service
T5 sequence (O15530 1-556): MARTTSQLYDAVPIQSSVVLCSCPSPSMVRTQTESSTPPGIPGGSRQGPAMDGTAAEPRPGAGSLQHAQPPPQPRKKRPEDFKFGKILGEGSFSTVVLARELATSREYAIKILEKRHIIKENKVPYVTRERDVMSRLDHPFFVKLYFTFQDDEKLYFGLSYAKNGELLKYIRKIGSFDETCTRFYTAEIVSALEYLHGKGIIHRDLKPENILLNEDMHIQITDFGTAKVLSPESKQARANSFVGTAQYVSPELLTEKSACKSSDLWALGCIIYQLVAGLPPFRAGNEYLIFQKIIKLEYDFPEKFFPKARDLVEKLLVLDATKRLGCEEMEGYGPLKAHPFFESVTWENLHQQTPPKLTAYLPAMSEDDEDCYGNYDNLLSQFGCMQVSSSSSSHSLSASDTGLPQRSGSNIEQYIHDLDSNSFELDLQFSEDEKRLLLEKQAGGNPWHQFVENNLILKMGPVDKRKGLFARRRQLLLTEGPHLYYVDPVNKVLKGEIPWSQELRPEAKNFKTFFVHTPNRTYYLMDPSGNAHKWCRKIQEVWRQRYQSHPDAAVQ

panel of 468 kinases [6] = molecular target: T6, panel of 468 kinases (Homo sapiens, UniProt P00533, G719C); conditions: EGFR(G719C); 1 μM; read-out: % control
T6 construct: purchased KINOMEscan (ScanMAX) service
T6 sequence (P00533 25-1210 G719C): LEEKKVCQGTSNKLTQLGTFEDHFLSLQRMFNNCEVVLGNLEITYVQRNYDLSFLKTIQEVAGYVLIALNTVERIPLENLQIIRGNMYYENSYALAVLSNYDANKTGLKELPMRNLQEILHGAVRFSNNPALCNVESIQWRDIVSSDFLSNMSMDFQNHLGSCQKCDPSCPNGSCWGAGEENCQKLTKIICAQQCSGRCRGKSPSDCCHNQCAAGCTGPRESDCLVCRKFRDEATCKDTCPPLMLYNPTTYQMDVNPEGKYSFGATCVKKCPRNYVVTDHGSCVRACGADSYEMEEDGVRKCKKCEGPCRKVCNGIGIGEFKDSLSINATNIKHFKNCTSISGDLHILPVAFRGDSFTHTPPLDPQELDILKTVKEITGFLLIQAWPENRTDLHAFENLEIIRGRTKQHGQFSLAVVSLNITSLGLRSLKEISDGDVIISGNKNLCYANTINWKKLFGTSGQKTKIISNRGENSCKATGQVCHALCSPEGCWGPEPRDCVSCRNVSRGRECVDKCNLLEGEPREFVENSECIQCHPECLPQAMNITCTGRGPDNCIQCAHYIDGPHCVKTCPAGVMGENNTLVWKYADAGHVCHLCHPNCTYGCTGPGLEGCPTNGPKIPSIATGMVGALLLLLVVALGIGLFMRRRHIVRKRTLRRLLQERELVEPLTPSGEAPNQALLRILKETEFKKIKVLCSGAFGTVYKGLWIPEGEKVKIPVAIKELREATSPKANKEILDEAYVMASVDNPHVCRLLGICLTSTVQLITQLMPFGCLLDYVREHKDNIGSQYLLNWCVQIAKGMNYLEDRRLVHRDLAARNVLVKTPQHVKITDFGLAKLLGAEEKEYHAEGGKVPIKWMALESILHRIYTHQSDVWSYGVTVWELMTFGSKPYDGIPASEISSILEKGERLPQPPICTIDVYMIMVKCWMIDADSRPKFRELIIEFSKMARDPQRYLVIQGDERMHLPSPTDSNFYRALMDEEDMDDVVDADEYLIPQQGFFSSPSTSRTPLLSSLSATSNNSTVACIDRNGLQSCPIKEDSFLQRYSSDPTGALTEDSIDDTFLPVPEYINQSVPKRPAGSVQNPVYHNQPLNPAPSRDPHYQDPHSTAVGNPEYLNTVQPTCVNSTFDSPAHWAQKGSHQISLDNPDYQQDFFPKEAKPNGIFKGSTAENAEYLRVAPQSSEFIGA

panel of 468 kinases [7] = molecular target: T7, panel of 468 kinases (Homo sapiens, UniProt Q9UM73, L1196M); conditions: ALK(L1196M); 1 μM; read-out: % control
T7 construct: purchased KINOMEscan (ScanMAX) service
T7 sequence (Q9UM73 19-1620 L1196M): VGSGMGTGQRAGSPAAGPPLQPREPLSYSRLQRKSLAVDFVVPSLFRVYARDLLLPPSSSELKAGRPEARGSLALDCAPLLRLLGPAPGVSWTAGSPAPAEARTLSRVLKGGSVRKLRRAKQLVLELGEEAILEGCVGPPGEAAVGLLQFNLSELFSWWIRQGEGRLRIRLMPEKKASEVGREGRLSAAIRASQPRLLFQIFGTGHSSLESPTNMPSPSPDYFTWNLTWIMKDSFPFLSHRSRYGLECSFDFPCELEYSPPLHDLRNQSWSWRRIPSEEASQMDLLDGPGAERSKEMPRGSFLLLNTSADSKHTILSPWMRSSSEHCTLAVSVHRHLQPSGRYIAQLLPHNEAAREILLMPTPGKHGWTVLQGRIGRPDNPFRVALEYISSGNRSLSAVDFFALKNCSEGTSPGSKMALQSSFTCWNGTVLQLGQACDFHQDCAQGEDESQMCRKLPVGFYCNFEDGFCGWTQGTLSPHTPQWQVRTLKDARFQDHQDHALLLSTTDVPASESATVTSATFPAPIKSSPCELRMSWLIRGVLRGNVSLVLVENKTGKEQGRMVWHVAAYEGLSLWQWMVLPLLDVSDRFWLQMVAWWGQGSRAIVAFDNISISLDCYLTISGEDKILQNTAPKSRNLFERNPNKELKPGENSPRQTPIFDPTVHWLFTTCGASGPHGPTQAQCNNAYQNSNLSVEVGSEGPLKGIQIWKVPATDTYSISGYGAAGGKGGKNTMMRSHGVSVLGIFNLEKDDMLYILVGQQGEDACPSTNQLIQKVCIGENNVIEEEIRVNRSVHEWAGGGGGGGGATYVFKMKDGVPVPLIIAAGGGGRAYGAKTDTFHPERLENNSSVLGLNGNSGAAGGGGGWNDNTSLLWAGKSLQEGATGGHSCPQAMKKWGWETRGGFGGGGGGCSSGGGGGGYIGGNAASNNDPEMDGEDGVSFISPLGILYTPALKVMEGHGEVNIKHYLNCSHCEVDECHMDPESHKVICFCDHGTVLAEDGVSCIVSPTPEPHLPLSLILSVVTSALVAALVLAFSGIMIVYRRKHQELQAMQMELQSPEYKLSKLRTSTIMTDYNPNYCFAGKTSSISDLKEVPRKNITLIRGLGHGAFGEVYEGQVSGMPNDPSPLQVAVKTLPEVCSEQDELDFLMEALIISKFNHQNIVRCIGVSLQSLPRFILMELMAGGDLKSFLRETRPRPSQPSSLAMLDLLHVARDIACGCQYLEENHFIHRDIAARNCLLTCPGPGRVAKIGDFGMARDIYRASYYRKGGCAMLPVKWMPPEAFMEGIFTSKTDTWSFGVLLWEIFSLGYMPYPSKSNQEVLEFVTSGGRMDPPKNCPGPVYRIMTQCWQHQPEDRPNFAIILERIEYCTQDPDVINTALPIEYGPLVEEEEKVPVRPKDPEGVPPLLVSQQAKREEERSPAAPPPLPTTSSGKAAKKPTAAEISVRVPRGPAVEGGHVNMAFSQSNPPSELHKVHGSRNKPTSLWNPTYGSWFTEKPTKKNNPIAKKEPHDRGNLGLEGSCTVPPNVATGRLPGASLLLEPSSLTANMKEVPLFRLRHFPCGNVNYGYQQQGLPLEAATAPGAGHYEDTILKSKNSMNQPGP

panel of 468 kinases [8] = molecular target: T8, panel of 468 kinases (Homo sapiens, UniProt P00519, H396P); conditions: 1 μM, read-out: % control
T8 construct: purchased KINOMEscan (ScanMAX) service

SMILES | remaining binding at 1 µM (panel of 468 kinases [1]) | remaining binding at 1 µM (panel of 468 kinases [2]) | remaining binding at 1 µM (panel of 468 kinases [3]) | remaining binding at 1 µM (panel of 468 kinases [4]) | remaining binding at 1 µM (panel of 468 kinases [5]) | remaining binding at 1 µM (panel of 468 kinases [6]) | remaining binding at 1 µM (panel of 468 kinases [7]) | remaining binding at 1 µM (panel of 468 kinases [8]; ABL1(H396P)-nonphosphorylated) | remaining binding at 1 µM (panel of 468 kinases [8]; ABL1(H396P)-phosphorylated)
CNc1nc(Nc2ccc(C(=O)N3CCC(N4CCOCC4)CC3)c3c2OCO3)nc2[nH]cc(Cl)c12 [Compound 75, (7-((5-chloro-4-(methylamino)-7H-pyrrolo[2,3-d]pyrimidin-2-yl)amino)benzo[d][1,3]dioxol-4-yl)(4-morpholinopiperidin-1-yl)methanone] | 83% | 89% | 89% | 100% | 98% | 100% | 27% | 99% | 82%
CNc1nc(Nc2ccc(S(=O)(=O)N3CCC(N4CCOCC4)CC3)cc2OC)nc2[nH]cc(Cl)c12 [Compound 12, 5-chloro-N2-(2-methoxy-4-((4-morpholinopiperidin-1-yl)sulfonyl)phenyl)-N4-methyl-7H-pyrrolo[2,3-d]pyrimidine-2,4-diamine] | 87% | 76% | 80% | 92% | 95% | 97% | 11% | 100% | 73%
CNc1nc(Nc2ccc(P3(=O)CCN(C4CCOCC4)CC3)cc2OC)nc2[nH]cc(Cl)c12 [Compound 77, 4-(4-((5-chloro-4-(methylamino)-7H-pyrrolo[2,3-d]pyrimidin-2-yl)amino)-3-methoxyphenyl)-1-(tetrahydro-2H-pyran-4-yl)-1,4-azaphosphinane 4-oxide] | 96% | 98% | 71% | 100% | 100% | 99% | 7.1% | 100% | 75%
